Values of other authors in patent US20140037570A1, “NBPT solution for preparing urease inhibited urea fertilizers prepared from N-alkyl; N, N-alkyl; and N-alkyl-N-alkoxy amino alcohols” (Whitehurst Associates Inc., priority 2012, published 2014).

Conditions: background statement on NBPT

Question: With CCCCNP(N)(N)=S [NBPT, N-(n-butyl)thiophosphoric triamide] as the molecule, how does the stability read?
Answer: thermally unstable
